Results: US11858938B2, “Imidazo-fused heterocycles and uses thereof” (Ligand Pharmaceuticals Incorporated, priority 2015, dated 2024)
pIC50: −log10 of the molar value.

Molecular target: T1, Recombinant human FLT3 (Homo sapiens, UniProt P36888)
T1 construct: His6 (C)
T1 sequence (P36888 27-993): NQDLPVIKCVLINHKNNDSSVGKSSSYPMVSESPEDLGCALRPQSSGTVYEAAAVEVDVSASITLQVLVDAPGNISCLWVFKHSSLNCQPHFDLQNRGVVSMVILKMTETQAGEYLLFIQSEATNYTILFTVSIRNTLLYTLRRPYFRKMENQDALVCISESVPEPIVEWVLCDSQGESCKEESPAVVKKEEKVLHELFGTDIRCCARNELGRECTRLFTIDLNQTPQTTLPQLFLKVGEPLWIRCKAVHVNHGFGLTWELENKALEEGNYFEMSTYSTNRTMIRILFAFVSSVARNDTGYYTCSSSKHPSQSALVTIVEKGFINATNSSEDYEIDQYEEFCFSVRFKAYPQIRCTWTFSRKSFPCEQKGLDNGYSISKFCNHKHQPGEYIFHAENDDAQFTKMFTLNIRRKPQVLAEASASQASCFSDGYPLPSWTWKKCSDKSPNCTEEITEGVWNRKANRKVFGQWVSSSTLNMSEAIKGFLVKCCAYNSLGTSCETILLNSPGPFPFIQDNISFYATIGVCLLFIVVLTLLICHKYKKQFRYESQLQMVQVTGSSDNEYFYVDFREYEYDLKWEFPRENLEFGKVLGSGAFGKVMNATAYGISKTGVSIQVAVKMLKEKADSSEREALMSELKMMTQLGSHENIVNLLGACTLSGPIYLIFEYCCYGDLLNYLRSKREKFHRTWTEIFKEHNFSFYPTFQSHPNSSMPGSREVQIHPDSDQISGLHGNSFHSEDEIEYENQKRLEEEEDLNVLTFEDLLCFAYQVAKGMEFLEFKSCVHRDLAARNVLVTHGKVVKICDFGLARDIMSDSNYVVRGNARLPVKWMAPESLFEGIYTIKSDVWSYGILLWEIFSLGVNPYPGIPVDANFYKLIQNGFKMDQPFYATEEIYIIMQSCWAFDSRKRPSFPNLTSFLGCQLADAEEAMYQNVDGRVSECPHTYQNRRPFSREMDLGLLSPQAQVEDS
Test: Flt3 kinase inhibitory assay (radioisotope filtration binding, 33P-ATP)
Assay type: biochemical
Conditions: read-out: Flt3 inhibition IC50
Protocol: The assay is performed using traditional radioisotope filtration binding.
A base reaction buffer is prepared consisting of 20 mM Hepes (pH 7.5), 10 mM MgCl2, 1 mM EGTA, 0.02% Brij35, 0.02 mg/ml BSA, 0.1 mM […], 2 mM DTT, 1% DMSO. The peptide substrate abltide [[…]] is added to the base reaction buffer to yield a final concentration of 5 μM. Additional cofactors (1.5 mM CaCl2, 16 ug/ml Calmodulin, and 2 mM MnCl2) are added to the buffer/substrate solution. Recombinant human FLT3 (baculovirus expression system using a C-terminal His6-tag) is added to the solution and gently mixed. Test compounds are dissolved in DMSO and added to the buffer/kinase solution to yield a final concentration of 5 μM. […] The reaction is initiated by the addition of ^33P-ATP (specific activity […]) into the reaction mixture to a final concentration of 10 μM. The kinase reaction was incubated for 120 minutes at room temperature. The reactions are spotted onto P81 ion exchange paper (Whatman #3698-915) and the filter papers are extensively washed in 0.75% Phosphoric acid and beta emissions are measured.

Structure (SMILES)	pIC50
c1cc(-c2cn3cc(Nc4cc(CN5CCCC5)ccn4)nc3cn2)ccn1 [Compound 101]	9.96
c1cc(-c2ccc3nc(Nc4cc(CN5CCCC5)ccn4)cn3n2)ccn1 [Compound 102]	9.60
